{
  "source": "patent US20250019671A1",
  "about": "“RECOMBINANT POLYPEPTIDE HAVING CARBOXYLIC ACID REDUCING ACTIVITY” (priority 2021, published 2025)",
  "key": {"O=C(O)CCCCC(=O)O": {"system": "O=C(O)CCCCC(=O)O", "assay": "purified protein, by the assay type", "conditions": "0.2 mM NADPH, 0.5 mM ATP, 10 mM MgCl2, 100 mM HEPES potassium buffer pH=8.0, 30° C., mean of two independent studies"}, "[1]": {"biological_target": "Mycobacterium abscessus carboxylic acid reductase variant W283R/A303M (modified carboxylic acid reductase 1), SEQ ID NO: 3 (Mycobacteroides abscessus, UniProt B1MLD7, A303M/W283R)", "conditions": "disodium adipate 0.1875-3 mM; 0.2 mM NADPH, 0.5 mM ATP, pH=8.0, 30° C.; mean of two independent studies", "description": "(§1) Examples of the recombinant polypeptide (also referred to as “modified carboxylic acid reductase”) having the amino acid sequence A according to the present invention are illustrated in FIG. 3 (modified carboxylic acid reductase 1, SEQ ID NO: 3) and FIG. 4 (modified carboxylic acid reductase 2, SEQ ID NO: 4). The modified carboxylic acid reductase 1 (consisting of the polypeptide set forth in SEQ ID NO: 3) illustrated in FIG. 3 has amino acid substitutions of W283R and A303M with respect to SEQ ID NO: 1. The modified carboxylic acid reductase 2 (consisting of the polypeptide set forth in SEQ ID NO: 4) illustrated in FIG. 4 has amino acid substitutions of W283R and L335F with respect to SEQ ID NO: 1. That is, in the modified carboxylic acid reductase 1, the amino acid residue at the position corresponding to position 283 and the amino acid residue at the position corresponding to position 303 are substituted with arginine and methionine, respectively, based on the amino acid sequence set forth in SEQ ID NO: 1. In the modified carboxylic acid reductase 2, the amino acid residue at the position corresponding to position 283 and the amino acid residue at the position corresponding to position 335 are substituted with arginine and phenylalanine, respectively, based on the amino acid sequence set forth in SEQ ID NO: 1."}, "[2]": {"system": "Mycobacterium abscessus carboxylic acid reductase variant W283R/A303M (modified carboxylic acid reductase 1), SEQ ID NO: 3", "description": "as §1"}, "[3]": {"system": "Mycobacterium abscessus carboxylic acid reductase variant L342E", "conditions": "literature value (Non Patent Literature 6); cited from earlier work"}, "[4]": {"system": "Mycobacterium abscessus carboxylic acid reductase variant G418E", "conditions": "literature value (Non Patent Literature 6); cited from earlier work"}, "[5]": {"conditions": "other: disodium adipate 3.125-50 mM"}},
  "data": [
    {"compound": "Mycobacterium abscessus carboxylic acid reductase, wild-type, SEQ ID NO: 1 (Mycobacteroides abscessus ATCC 19977)", "values": [
      {"measurement": "Km", "setting": "O=C(O)CCCCC(=O)O; [5]", "result": 23.3, "unit": "mM"},
      {"measurement": "Vmax", "setting": "O=C(O)CCCCC(=O)O; [5]", "result": 18.1, "unit": "µM/min"},
      {"measurement": "kcat", "setting": "O=C(O)CCCCC(=O)O; [5]", "result": 1.68, "unit": "s⁻¹"}
    ]},
    {"compound": "Mycobacterium abscessus carboxylic acid reductase variant W283R/A303M (modified carboxylic acid reductase 1), SEQ ID NO: 3 (Mycobacteroides abscessus ATCC 19977; A303M/W283R)", "values": [
      {"measurement": "Km", "setting": "O=C(O)CCCCC(=O)O; other: disodium adipate 0.1875-3 mM", "result": 1.06, "unit": "mM"}
    ]},
    {"compound": "O=C(O)CCCCC(=O)O", "note": "[adipic acid, hexanedioic acid]", "values": [
      {"measurement": "Kcat", "setting": "[1]", "result": 3.53, "unit": "s⁻¹"},
      {"measurement": "Vmax", "setting": "[1]", "result": 24.8, "unit": "µmol/L/min"},
      {"measurement": "Km of the mutant enzyme for adipic acid compared to the existing variant carboxylic acid reductases (L342 and G418E mutants)", "setting": "[2]; W283R/A303M mutant vs literature L342 and G418E mutants", "result": "1/17"},
      {"measurement": "Km of the mutant enzyme for adipic acid relative to that of the wild-type enzyme", "setting": "[2]; W283R/A303M mutant vs wild-type enzyme", "result": "1/20"},
      {"measurement": "Kcat", "setting": "[3]", "result": "2.72 ± 0.09", "unit": "s⁻¹"},
      {"measurement": "Km", "setting": "[3]", "result": 56.6, "unit": "mM"},
      {"measurement": "Km", "setting": "[4]", "result": 18.7, "unit": "mM"}
    ]}
  ]
}
